Measured values: paper PMC10667816, “A Cell‐Penetrant Peptide Disrupting the Transcription Factor CP2c Complexes Induces Cancer‐Specific Synthetic Lethality” (Advanced Science, 2023)
*1 amine or outer side, *2 acyl side, *3 side chain or, on linkers, in order; H or OH if unused. Where a SMILES comes first, the peptide text is derived from it. Side-chain parts run from the residue outwards. The star is where a group is joined. γGlu = O=C(O)[C@H](CCC(=O)[*:2])N[*:1]; Palmitoyl = CCCCCCCCCCCCCCCC(=O)*

Columns and labels:
[1] = system: MDA‐MB‐231 LM1 breast cancer; assay: MDA‐MB‐231 LM1 CDX mouse model; format: in vivo
Protocol: (§1) Animal experiments were conducted in accordance with ethical guidelines, and all protocols were approved by the Institutional Animal Care and Use Committee under Hanyang University (approval numbers, 2014‐0016A, 2018‐0049A, 2018‐0207A, and 2019‐0169A), Chung‐Ang University (approval number, 2015‐00022), Chungbuk University (approval number, CBNUA‐1072‐17‐02), and Konkuk University (approval number, KU17130). To establish xenograft mice models, Hep3B, A431, U343, and PC9 cells were subcutaneously injected into the flank of Balb/c nude mice. For the MDA‐MB‐231 (LM1) cell line, it was implanted into the mammary fat pad of immunodeficient mice (NPG mice). […] Tumor volume was calculated using the formula of length × width^2)/2. […] The in vivo administration amount was determined based on the concentration of ACP52C confirmed at the cellular level, which was 2 µM. […] For ACP52C derivatives, the amount was adjusted to ensure a similar molar quantity of peptide injection, taking their molecular weights into account. For instance, in the case of ACP52CGK, ≈1.67 times the quantity was used compared to ACP52C to achieve an equivalent molar quantity. […] Hematoxylin and eosin (H&E)‐stained tissue sections were analyzed and photographed, and the representative histological images were recorded. […]

Solubility of peptides = format: physicochemical
Text: The peptides listed in Table S3 (Supporting Information) were synthesized by either ANYGEN (Kwangju, Korea) or PepMic (Suzhou, China) and achieved purity of over 95%. These peptides were synthesized using the Solid‐phase method based on the Fmoc strategy, using an Applied Biosystems 431A peptide synthesizer on a 0.25‐mmol scale. To enhance the stability of ACP52C, saturated C16 palmitic acid, DHA, and E‐pal were utilized. These fatty acids were linked to the lysine (K) residue at the N‐terminal of ACP52C or within the ACP52 and iRGD region through a covalent bond formed between the εK NH3+ and αE or γE COO‐ groups. After synthesis, the final product was prepared through lyophilization and appeared as a white amorphous powder for both ACP52C and its derivatives. To confirm their quality, the purity and molecular weight of the final product were evaluated using amino acid analysis, analytical RP‐HPLC, and MALDI‐MS. […] FQI1, Sorafenib, and cisplatin were purchased from Sigma–Aldrich (SML0413, SML2653) or Selleckchem (S1166), respectively.
Figure S21. […]
A) A schematic representation depicting the structural diagrams, molecular weights, and minimum solubilities (in water or saline) of ACP52C and its derivatives. […] Tumor weight in the sacrificed mice after completion of drug administration schedule was expressed as means ± SE. […]

[2] = system: lung cancer cells and some blood cancer cells; assay: MTT growth inhibition in ACP52C‐resistant cells; format: cell-based, human; conditions: concentrations up to 1 mM
Protocol: Various cell lines were treated with peptides, either alone or in combination with the CASP2 inhibitor (Ac‐VDVAD‐CHO; Enzo ALX‐260‐058‐M001) at various concentrations for 4 days. Cell viability was assessed on day 2 or day 4 using MTT (3‐(4,5‐dimethylthiazol‐2‐yl)‐2,5‐diphenyltetrazolium bromide; Sigma–Aldrich, M2128) assay. In brief, fresh cells were seeded in flat‐bottomed 96‐well tissue culture plates at appropriate concentrations for each cell line per well using complete culture medium. The cells were incubated in 100 µL of culture medium containing various concentration of chemicals or peptides at 37 °C for 0 to 96 h. A solution of MTT (5 mg mL^−1) was added to the culture medium, and the cells were further incubated at 37 °C for an additional 3 h. The MTT medium was then removed, and the formazan crystals were dissolved in DMSO (100 µL per well). The formazan concentration was measured spectrophotometrically at 490 nm using a Varioskan Flash Spectral Scanning Multimode Reader (Thermo Scientific Korea). Nonlinear regression curves for growth inhibition and GI50 values for each cell line were estimated from independent replicates using the Prism (version 6) software (GraphPad Software Inc.)

[3] = system: A431 epidermoid carcinoma; assay: A431 CDX mouse model; format: in vivo; conditions: intravenous injection every 2 or 3 days from day 14
Protocol: as §1

[4] = system: CP2c transcriptional targets (FN1, OCT4, and SNAI2) in HepG2 cells; assay: RT‐qPCR transcription inhibition of CP2c targets; format: cell-based, human; conditions: summary for both cell lines, 36 h after treatment; read-out: average TI50 (50% transcriptional inhibition) values of the three CP2c targets
Protocol: To quantify mRNA expression of the gene of interest, cells were harvested, and total cellular RNA was extracted using Qiazol reagent (Qiagen, 79306). Purified RNA was dissolved in Diethyl pyrocarbonate (DEPC) water. Reverse transcription was performed using a High‐Capacity cDNA reverse transcription kit (Toyobo, FSQ‐201) in the presence of 400 ng of total RNA and 10 pmol random hexamer. PCR was performed using rTaq Plus 5X PCR master mix (Elpis‐Biotech, EBT‐1319) and the SYBR green Master Mix Kit. Amplifications were performed using a Light cycler 1.5 real‐time PCR system.^[ [43] ^] The relative mRNA expression levels were determined using the 2(−ΔCt) method, with GAPDH transcript levels serving as an internal control. Errors were calculated from at least two independent experiments. Oligonucleotide primers used in RT–qPCR are listed in Table S2 (Supporting Information).

For `CCCCCCCCCCCCCCCC(=O)N[C@@H](CCC(=O)NCCCC[C@H](NC(=O)CNC(=O)CNC(=O)[C@@H]1CCCN1C(=O)[C@H](CCCNC(=N)N)NC(=O)[C@H](CCC(N)=O)NC(=O)[C@@H]1CCCN1C(=O)[C@H](Cc1ccc(O)cc1)NC(=O)[C@H](CC(N)=O)NC(C)=O)C(=O)NCC(=O)NCC(=O)N[C@@H](CS)C(=O)N[C@@H](CCCNC(=N)N)C(=O)NCC(=O)N[C@@H](CC(=O)O)C(=O)N[C@@H](CCCCN)C(=O)NCC(=O)N1CCC[C@H]1C(=O)N[C@@H](CC(=O)O)C(=O)N[C@@H](CS)C(N)=O)C(=O)O` [ACP52CGK] (Ac-NYPQRPGGK([γGlu-Palmitoyl])GGCRGDKGPDC-NH2), the “anti‐tumor efficacy” value ([1]; administered at five‐day intervals, NPG mice) was “remarkable anti‐tumor efficacy” and the “concentration at which completely dissolved” value (Solubility of peptides) was at least 100000 µg/mL.
With `CC(=O)N[C@@H](CC(N)=O)C(=O)N[C@@H](Cc1ccc(O)cc1)C(=O)N1CCC[C@H]1C(=O)N[C@@H](CCC(N)=O)C(=O)N[C@@H](CCCNC(=N)N)C(=O)N1CCC[C@H]1C(=O)N[C@@H](CS)C(=O)N[C@@H](CCCNC(=N)N)C(=O)NCC(=O)N[C@@H](CC(=O)O)C(=O)N[C@@H](CCCCN)C(=O)NCC(=O)N1CCC[C@H]1C(=O)N[C@@H](CC(=O)O)C(=O)N[C@@H](CS)C(N)=O` [ACP52C] (Ac-NYPQRPCRGDKGPDC-NH2) the tumor weight ([1]; intravenous injection every 2 or 3 days from day 14) was “significantly reduced tumor weight”, the growth inhibition [2] was “resistance” and the tumor weight [3] was “significantly reduced tumor weight”. The IC50 [4] was 35 to 40 µM.
